Results on 4 molecules are retold here after patent publication US9198855B2, “Veterinary dermatologic composition” (Dermaconcept JMC, priority 2001, dated 2015).

In test [1] the test system is Staphylococcus Intermedius. Kind of test: Multiplication of Staphylococcus Intermedius cultures, doses 0-100 ppm in usual culture environment without solubilising agent. It is filed as cell-based. The following applies: for concentration completely inhibiting multiplication of Staphylococcus Intermedius cultures: complete inhibition; for concentration partly inhibiting multiplication of Staphylococcus Intermedius cultures: partial inhibition. On the procedure:
(§1) The minimum inhibitory concentration in case of Malassezia pachyadermatis was 25 ppm. Experiments were carried out using doses of 0, 5, 10, 25, 50 and 100 ppm of phytosphingosin and its hydrochloric acid salt on Staphylococcus Intermedius in usual culture environment without solubilising agent.

Test [2] has as its system Malassezia pachyadermatis. The test is described as follows: In-vitro mycological study, minimum inhibitory concentration. It is filed as cell-based, Malassezia pachydermatis. Here is the method:
as §1
However the effect is not limited to cats and dogs but extends to other furry animals, such as horses, rabbits, […]

For a further test, the system named is Staphylococcus aureus. The following applies: inflammated, depilated guinea pig skin; cited from earlier work.
A further test concerns Candida albicans. The following applies: inflammated, depilated guinea pig skin; cited from earlier work.

Converted amounts (≈) assume the structure as drawn.

With `CCCCCCCCCCCCCC[C@@H](O)[C@@H](O)[C@@H](N)CO.Cl` [phytosphingosin hydrochloric acid salt, Phytosphingosin hydrochloric acid], in test [1], the “concentration completely inhibiting multiplication of Staphylococcus Intermedius cultures” value was found to be 10 ppm and the “concentration partly inhibiting multiplication of Staphylococcus Intermedius cultures” value was found to be 5 ppm.

Usually MIC stands for the smallest concentration in the dilution series that meets the test's criterion for growth inhibition. A high value points to a less susceptible organism. For the molecule `CCCCCCCCCCCCCC[C@@H](O)[C@@H](O)[C@@H](N)CO` [phytosphingosin], 25 µg/mL (≈ 78.7 µM) was the least that counted as inhibitory in test [2] (Malassezia pachyadermatis) (MIC). The “anti-fungal action against Malassezia pachydermatis” value in test [2] (in-vitro mycological studies) was “anti-fungal action”. For the same molecule, in test [1], the “concentration completely inhibiting multiplication of Staphylococcus Intermedius cultures” value was 10 ppm and the “concentration partly inhibiting multiplication of Staphylococcus Intermedius cultures” value turned out to be 5 ppm.

For the molecule `CCCCCCCCCCCCC/C=C/[C@@H](O)[C@@H](N)CO` [Sphingosin, sphingosin], the “activity against Staphylococcus aureus” value with Staphylococcus aureus is listed as “little effect”. Moreover, the “activity against Candida albicans” value in the test with Candida albicans is “little effect”.

Regarding `CCCCCCCCCCCCCCC[C@@H](O)[C@@H](N)CO` [sphinganin], the “activity against Staphylococcus aureus” value with Staphylococcus aureus is “effective”. Moreover, the “activity against Candida albicans” value in the test on Candida albicans is on record as “effective”.
